Some results are limits rather than exact numbers.

The first test relates to STING pathway. Description: IFN β reporter assay (HTRF, 2′3′-cGAMP-stimulated THP1 cells). The format is cell-based, human. Conditions: Homo sapiens, THP-1, THP1 cells, 5 μM 2′3′-cGAMP, IFN β secretion inhibition; class symbols; read-out: IFN β reporter activity IC50. As for the experimental part: STING pathway deactivation by the compounds described herein was measured using THP1 cells. The THP1 Cells (obtained from ATCC, Cat #TIB-202) were maintained in RPMI-1640 (Gibco, Cat #22400105), 10% FBS, 1% Pen-Strep, 0.05 mM 2-mercaptoethanol. For STING activation, 2′3′-cGAMP (MW 718.38, obtained from Invivogen) was used and prepared in serum-free RPMI-1640 media. Growth media: RPMI-1640 (HEPES, glutamine), 10% FBS, 1% Pen-Strep, 0.05 mM 2-mercaptoethanol. Assay media: RPMI-1640 (HEPES, glutamine), 0.5% FBS. 2′3′-cGAMP: Dissolve 2′3′-cGAMP to 10 mM stock in H2O.
The cells were prepared and seeded at 100K, 90 μL/well with assay media in cell culture plate (Greiner 655180). The compounds were added in 96-well tissue culture plates by Tecan D300e for a final concentration of 0.00137-3 μM.
Lipo2000/3000 and 2′3′-cGAMP stock solutions were diluted respectively in serum-free RPMI-1640 media. The diluted 2′3′-cGAMP and Lipo (V/V=1:1) were mixed and stood for 15 min at room temperature. 10 μL 2,3-cGAMP/Lipofectamine (10×) was transferred to the 96-well assay plate with a final 2′3′-cGAMP concentration of 5 μM. The cell plates were centrifuged at 1000 rpm for 5 min after incubating at 37° C., 5% CO2 overnight.
All reagents (human IFN beta kit, Cisbio 62HIFNBPEG) were warmed to room temperature for at least 30 min before the assay. The instructions of the kit were followed to prepare the detection media. 14 μL of cell supernatants was transferred into their dedicated wells in 384-well plate. Then 2 μL of the activation reagent solution and 4 μL of the mixed antibody solution were added to all wells. The plate was sealed and incubated for 3 h at room temperature.
The HTRF signal was read in Envision (PerkinElmer). IFN β reporter activity was then measured. The calculated ratio is the signal at 665 nm/signal at 615 nm. IC50 values are calculated by using standard methods known in the art.
On the technique in general: In a reporter assay the amount or activity of a reporter protein is the signal.
The IC50 is the concentration needed to halve the response being measured. Consider `Cn1cc(C(=O)Nc2c[nH]c3ccc(N4CCN(C(=O)OC(C)(C)C)CC4=O)cc23)c2ccc(C(F)(F)F)cc21` [Example 38], for which the IC50 lay within 50 to 200 nM. Regarding `CN1CCC(c2cc3c(cc2Cl)c(C(=O)Nc2c[nH]c4ccc(C#N)cc24)cn3C)CC1` [Example 120, 5-chloro-N-(5-cyano-1H-indol-3-yl)-1-methyl-6-(1-methyl-4-piperidyl)indole-3-carboxamide], the IC50 was over 1000 nM. As to `Cn1cc(C(=O)Nc2c[nH]c3ccc(C#N)cc23)c2cc(Cl)c(C3=CCOCC3)cc21` [Example 55], the IC50 was 50 to 200 nM. On to `O=C(Nc1c[nH]c2ccc(F)cc12)c1n[nH]c2cc(Cl)c(Cl)cc12` [Example 12], for which the IC50 is under 50 nM.

With `CS(=O)(=O)c1ccc2c(C(=O)Nc3c[nH]c4ccc(F)cc34)n[nH]c2c1` [Example 13], the IC50 is over 1000 nM.

With `Cn1cc(C(=O)Nc2c[nH]c3ccc(F)cc23)c2cc(F)c(CN3CCCCC3)cc21` [Example 99], the concentration for half-maximal inhibition (IC50) was over 1000 nM. As to `Cn1cc(C(=O)Nc2c[nH]c3ccc(F)cc23)c2cc(F)c(CNC(C)(C)C)cc21` [Example 96], the IC50 is over 1000 nM.

For the compound `Cn1nc(C(=O)Nc2c[nH]c3ccccc23)c2ccc(C#N)cc21` [Example 86, 6-cyano-N-(1H-indol-3-yl)-1-methyl-indazole-3-carboxamide], the IC50 is over 1000 nM. On the same count and under the same terms, to `O=C(Nc1c[nH]c2ccc(C(F)(F)F)cc12)c1n[nH]c2cc(C(F)(F)F)ccc12` [Example 10] belongs 50 to 200 nM. In the case of `C#Cc1ccc2c(C(=O)Nc3c[nH]c4ccc(F)cc34)n[nH]c2c1` [Example 14], the IC50 was in the range of 50 to 200 nM.

Turning to `O=C(Nc1c[nH]c2ccc(F)cc12)c1cnn2cc(Cl)ccc12` [Example 23], the IC50 fell in the range of 200 to 1000 nM. Consider `O=C(Nc1c[nH]c2cc(F)c(F)cc12)c1n[nH]c2nc(OCC(F)(F)F)ccc12` [Example 70], for which the IC50 is 50 to 200 nM. As to `CN(C)Cc1cc2c(cc1F)c(C(=O)Nc1c[nH]c3ccc(F)cc13)cn2C` [Example 94], the IC50 was over 1000 nM. For the compound `O=C(Nc1c[nH]c2cc(F)c(F)cc12)c1cc2ccccc2[nH]1` [Example 65], the IC50 was under 50 nM. Turning to `Cn1cc(C(=O)Nc2c[nH]c3cc(F)c(Cl)cc23)c2cc(F)c(C3CCOCC3)cc21` [Example 48], the IC50 lay within 50 to 200 nM. Take `COC(=O)c1ccc2c(C(=O)Nc3c[nH]c4ccc(F)cc34)n[nH]c2c1` [Example 27]: the concentration for half-maximal inhibition (IC50) was over 1000 nM. In the case of `O=C(Nc1c[nH]c2cc(F)c(F)cc12)c1cnn2cc(Br)ccc12` [Example 59], the IC50 was 200 to 1000 nM. `CN(Cc1ccc2[nH]cc(NC(=O)c3cn(C)c4cc(C(F)(F)F)ccc34)c2c1)C(=O)OC(C)(C)C` [Example 39]: the IC50 lay within 50 to 200 nM. As to `COC(=O)c1ccc2[nH]cc(NC(=O)c3cn(C)c4cc(C(F)(F)F)ccc34)c2c1` [Example 33], the IC50 lay within 50 to 200 nM. Turning to `O=C(Nc1c[nH]c2cc(F)c(F)cc12)c1cc2ccc(Br)cn2n1` [Example 58], the IC50 was 200 to 1000 nM. Consider `O=C(Nc1c[nH]c2cc(F)c(F)cc12)c1n[nH]c2ccccc12` [Example 63], for which the IC50 was in the range of 50 to 200 nM. Still for that read-out and setting: to `Cn1cc(C(=O)Nc2c[nH]c3ccc(C(=O)O)cc23)c2ccc(C(F)(F)F)cc21` [Example 87, 3-[[1-methyl-6-(trifluoromethyl)indole-3-carbonyl]amino]-1H-indole-5-carboxylic acid] belongs over 1000 nM. In the case of `Cn1cc(C(=O)Nc2c[nH]c3ccc(F)cc23)c2cc(F)c(CN3CCOCC3)cc21` [Example 95], the IC50 was in the range of 200 to 1000 nM.

Turning to `Cn1cc(C(=O)Nc2c[nH]c3ccc(S(C)(=O)=O)cc23)c2ccc(C(F)(F)F)cc21` [Example 37], the concentration for half-maximal inhibition (IC50) is over 1000 nM. `O=C(Nc1c[nH]c2ccc(F)cc12)c1n[nH]c2cc(N3CCOCC3)ccc12` [Example 60, N-(5-fluoro-1H-indol-3-yl)-6-morpholino-1H-indazole-3-carboxamide]: the IC50 is 200 to 1000 nM.

`Cn1cc(C(=O)Nc2c[nH]c3ccc(F)cc23)c2cc(F)c(CN3CCN(CC(F)(F)F)CC3)cc21` [Example 101]: the IC50 fell in the range of 50 to 200 nM. Still for that read-out and setting: the result for `O=C(Nc1c[nH]c2ccc(F)cc12)c1c[nH]c2cc(C(F)(F)F)ccc12` [Example 53] reads under 50 nM; that for `O=C(Nc1c[nH]c2ccc(F)cc12)c1n[nH]c2cc(C3=CCOCC3)ccc12` [Example 29], 50 to 200 nM; that for `O=C(Nc1c[nH]c2ccc(F)cc12)c1n[nH]c2cc(OC(F)(F)F)ccc12` [Example 11], 200 to 1000 nM.

`Cn1cc(C(=O)Nc2c[nH]c3ccc(F)cc23)c2cc(F)c(CNCCC(F)(F)F)cc21` [Example 97, 5-fluoro-N-(5-fluoro-1H-indol-3-yl)-1-methyl-6-[(3,3,3-trifluoropropylamino)methyl]indole-3-carboxamide]: the IC50 was 50 to 200 nM.

For `Cn1cc(C(=O)Nc2c[nH]c3ccc(F)cc23)c2cc(F)c(C3=CCOCC3)cc21` [Example 80], the IC50 was in the range of 50 to 200 nM. Turning to `CCCCc1ccc2c(C(=O)Nc3c[nH]c4ccc(F)cc34)n[nH]c2c1` [Example 61], the IC50 is 50 to 200 nM. For the compound `O=C(Nc1c[nH]c2ccc(F)cc12)c1cc2ccc(Br)cn2n1` [Example 57], the IC50 is under 50 nM. On to `O=C(Nc1c[nH]c2ccc(Br)cc12)c1n[nH]c2cc(C(F)(F)F)ccc12` [Example 15], for which the IC50 is under 50 nM. Same read-out and setting: the result for `O=C(Nc1c[nH]c2cc(F)c(F)cc12)c1n[nH]c2cc(C(F)(F)F)ccc12` [Example 17] reads under 50 nM.

The same test, now with this note: Homo sapiens, THP-1, THP1 cells, 5 μM 2′3′-cGAMP, IFN β secretion inhibition; numeric values (comparators); read-out: IFN β reporter activity IC50.
Consider `Cn1cc(NC(=O)c2cn(C)c3cc(C(F)(F)F)ccc23)c2cc(C#N)ccc21` [Comparator D, reference compound], for which the 50% inhibitory concentration (IC50) amounted to 10000 nM.

The same test, now with this note: Homo sapiens, THP-1, read-out: IFN β reporter activity IC50.
Consider `Cn1cc(C(=O)Nc2c[nH]c3ccccc23)c2ccc(C(F)(F)F)cc21` [Example 18], for which the IC50 lay within 50 to 200 nM.

`O=C(Nc1c[nH]c2ccc(F)cc12)c1cn([C@@H]2CCOC2)c2cc(C(F)(F)F)ccc12` [Example 76]: the IC50 lay within 200 to 1000 nM.

For the compound `Cn1nc(C(=O)Nc2c[nH]c3ccccc23)c2cc(Br)ccc21` [Example 3], the IC50 lay within 50 to 200 nM. As for `CN1CC=C(c2ccc3c(C(=O)Nc4c[nH]c5ccc(F)cc45)cn(C)c3c2)CC1` [Example 117], the IC50 is over 1000 nM. Consider `CN1CC=C(c2cc3c(cc2F)c(C(=O)Nc2c[nH]c4ccc(F)cc24)cn3C)CC1` [Example 115, 5-fluoro-N-(5-fluoro-1H-indol-3-yl)-1-methyl-6-(1-methyl-3,6-dihydro-2H-pyridin-4-yl)indole-3-carboxamide], for which the concentration for half-maximal inhibition (IC50) is over 1000 nM. On to `COc1ccc2[nH]cc(NC(=O)c3cn(C)c4cc(C(F)(F)F)ccc34)c2c1` [Example 51], for which the IC50 was 50 to 200 nM. Turning to `Cn1cc(C(=O)Nc2c[nH]c3ccc(F)cc23)c2ccccc21` [Example 35], the IC50 was 200 to 1000 nM.

Consider `Cn1cc(C(=O)Nc2c[nH]c3ccc(C#N)cc23)c2ccc(C(F)(F)F)cc21` [Example 36], for which the IC50 was under 50 nM. `COCCOc1ccc2c(C(=O)Nc3c[nH]c4ccc(F)cc34)cn(C3CC3)c2n1` [Example 46]: the IC50 lay within 50 to 200 nM. As for `N#Cc1ccc2[nH]cc(NC(=O)c3cn(C4CC4)c4nc(O[C@H]5CCOC5)ccc34)c2c1` [Example 42], the IC50 lay in the range of 200 to 1000 nM. Turning to `Cn1cc(C(=O)Nc2c[nH]c3ccc(F)cc23)c2ccc(Cl)nc21` [Example 71], the IC50 fell in the range of 50 to 200 nM. On to `N#Cc1ccc2[nH]cc(NC(=O)c3cn(C4CC4)c4nc(OCC(F)(F)F)ccc34)c2c1` [Example 41], for which the half-maximal inhibitory concentration (IC50) is 50 to 200 nM. Same read-out and setting: the result for `O=C(Nc1c[nH]c2ccccc12)c1nn(CC2CC2)c2cc(C(F)(F)F)ccc12` [Example 30] reads 50 to 200 nM.

Consider `COCCOc1ccc2c(C(=O)Nc3c[nH]c4ccc(C#N)cc34)cn(C3CC3)c2n1` [Example 47], for which the IC50 was 200 to 1000 nM.

For `CN1CC(n2cc(C(=O)Nc3c[nH]c4ccc(F)cc34)c3ccc(C(F)(F)F)cc32)C1` [Example 114, N-(5-fluoro-1H-indol-3-yl)-1-(1-methylazetidin-3-yl)-6-(trifluoromethyl)indole-3-carboxamide], the IC50 was over 1000 nM. Still for that read-out and setting: the result for `N#Cc1ccc2[nH]cc(NC(=O)c3cn(C4COC4)c4cc(C5=CCOCC5)c(F)cc34)c2c1` [Example 112, N-(5-cyano-1H-indol-3-yl)-6-(3,6-dihydro-2H-pyran-4-yl)-5-fluoro-1-(oxetan-3-yl)indole-3-carboxamide] reads 50 to 200 nM; that for `CC(C)n1nc(C(=O)Nc2c[nH]c3ccccc23)c2ccc(C(F)(F)F)cc21` [Example 5], 200 to 1000 nM. With `N#Cc1ccc2[nH]cc(NC(=O)c3cn(C4CC4)c4nc(O[C@@H]5CCOC5)ccc34)c2c1` [Example 43], the IC50 was 200 to 1000 nM.

The values above are taken from patent US20240002368A1 (QILU REGOR THERAPEUTICS INC., priority 2020, published 2024).
